± gives the standard deviation of the averaged measurements.
Tests used:
Test in all cases: level (log10 ratio to DMSO vehicle control); higher = higher biomarker level / cell amount than vehicle control
Conditions in all cases: in DMSO
Perfluorohexanoic acid = compound: O=C(O)C(F)(F)C(F)(F)C(F)(F)C(F)(F)C(F)(F)F [Perfluorohexanoic acid]
Protocol: (§1)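 BioMAP Diversity Plus panel of 12 human primary cell co-culture systems (3C, 4H, LPS, SAg, BT, BF4T, BE3C, CASM3C, HDF3CGF, KF3CT, MyoF, Mphg). Compounds were added 1 h before stimulation and left for 24 h (MyoF 48 h; BT 72 h for soluble read-outs or 6 d for IgG). Biomarkers were read by ELISA, cytotoxicity by SRB, PBMC viability and proliferation by Alamar Blue. Each well value was divided by the mean of 8 DMSO control wells on the same plate and log10 transformed; duplicate blinded samples were tested at 4 concentrations.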

[1] = compound: O=C(O)C(F)(F)C(F)(F)C(F)(F)C(F)(F)C(F)(F)C(F)(F)C(F)(F)C(F)(F)C(F)(F)C(F)(F)C(F)(F)C(F)(F)C(F)(F)F [Perfluorotetradecanoic acid]
Protocol: as §1

Perfluorooctanamidine = compound: N=C(N)C(F)(F)C(F)(F)C(F)(F)C(F)(F)C(F)(F)C(F)(F)C(F)(F)F [Perfluorooctanamidine]
Protocol: as §1

1H,1H-Heptafluorobutanol = compound: OCC(F)(F)C(F)(F)C(F)(F)F [1H,1H-Heptafluorobutanol]
Protocol: as §1

[2] = compound: CC(C)(C)C(=O)CC(=O)C(F)(F)C(F)(F)C(F)(F)F [(Heptafluorobutanoyl)pivaloylmethane]
Protocol: as §1

[3] = compound: C=CC(=O)OCCC(F)(F)C(F)(F)C(F)(F)C(F)(F)F [2-(Perfluorobutyl)ethyl acrylate]
Protocol: as §1

[4] = compound: CNS(=O)(=O)C(F)(F)C(F)(F)C(F)(F)C(F)(F)C(F)(F)C(F)(F)C(F)(F)C(F)(F)F [N-Methylperfluorooctanesulfonamide]
Protocol: as §1

Row | Test System | level (log10) (Perfluorohexanoic acid; 6700 nM) | level (log10) (Perfluorohexanoic acid; 20000 nM) | level (log10) (Perfluorohexanoic acid; 60000 nM) | level (log10) ([1]; 6700 nM) | level (log10) ([1]; 20000 nM) | level (log10) (Perfluorooctanamidine; 6700 nM) | level (log10) (Perfluorooctanamidine; 20000 nM) | level (log10) (Perfluorooctanamidine; 60000 nM) | level (log10) (1H,1H-Heptafluorobutanol; 6700 nM) | level (log10) (1H,1H-Heptafluorobutanol; 20000 nM) | level (log10) (1H,1H-Heptafluorobutanol; 60000 nM) | level (log10) ([2]; 6700 nM) | level (log10) ([2]; 20000 nM) | level (log10) ([2]; 60000 nM) | level (log10) ([3]; 6700 nM) | level (log10) ([3]; 20000 nM) | level (log10) ([3]; 60000 nM) | level (log10) ([4]; 6700 nM) | level (log10) ([4]; 20000 nM) | level (log10) ([4]; 60000 nM)
1 | HDF3CGF:CD54/ICAM-1 | -0.009 ± 0.013 | -0.017 ± 0.013 | -0.019 ± 0.037 | -0.0015 ± 0.029 | -0.023 ± 0.033 | -0.0235 ± 0.0064 | -0.014 ± 0.013 | -0.072 | -0.008 ± 0.0042 | 0.0005 ± 0.0021 | 0.0045 ± 0.0092 | 0 ± 0.0057 | -0.0075 ± 0.013 | 0.0065 ± 0.00071 | -0.028 ± 0.025 | -0.035 ± 0.025 | -0.131 ± 0.059 | -0.002 ± 0.0028 | -0.0075 ± 0.019 | -0.0845 ± 0.0035
2 | MyoF:CD106/VCAM-1 | 0.002 ± 0.0057 | 0.002 ± 0.0071 | -0.0095 ± 0.013 | -0.0045 ± 0.019 | 0.013 ± 0.025 | 0.0115 ± 0.026 | -0.002 ± 0.018 | 0.011 | 0.0025 ± 0.022 | 0.0025 ± 0.011 | 0.008 ± 0.0014 | -0.011 ± 0.035 | -0.0065 ± 0.028 | 0.005 ± 0.0085 | -0.019 ± 0.0085 | -0.044 ± 0.027 | -0.101 ± 0.045 | 0.0065 ± 0.0078 | -0.0035 ± 0.016 | -0.0155 ± 0.012
3 | MyoF:PAI-I | 0.0025 ± 0.005 | 0.002 ± 0.0028 | 0.009 | 0.0115 ± 0.0064 | 0.006 | 0.0015 ± 0.0064 | -0.0075 ± 0.013 | 0.021 | 0.0065 ± 0.0035 | 0.002 ± 0.0071 | -0.001 | 0.009 ± 0.016 | 0.009 ± 0.024 | 0.0195 ± 0.018 | -0.003 ± 0.0071 | 0.001 ± 0.023 | 0.0005 ± 0.018 | 0.0005 ± 0.022 | -0.0145 ± 0.012 | 0.0255 ± 0.0092
4 | CASM3C:CD87/uPAR | -0.003 ± 0.027 | 0.0085 ± 0.022 | -0.012 ± 0.0014 | -0.0305 ± 0.057 | -0.0375 ± 0.026 | -0.011 ± 0.016 | -0.02 ± 0.037 | -0.034 | -0.0045 ± 0.026 | -0.013 ± 0.016 | 0.015 ± 0.011 | 0.003 ± 0.02 | -0.0235 ± 0.0064 | -0.014 ± 0.023 | -0.006 ± 0.024 | -0.027 ± 0.018 | -0.023 ± 0.0042 | -0.0035 ± 0.0064 | -0.0255 ± 0.022 | -0.0495 ± 0.013
5 | HDF3CGF:M-CSF | -0.015 ± 0.059 | 0.013 ± 0.021 | -0.006 ± 0.05 | 0.041 ± 0.038 | 0 ± 0.067 | -0.017 ± 0.014 | -0.0485 ± 0.018 | -0.177 | 0.0045 ± 0.035 | 0.0335 ± 0.00071 | 0.004 ± 0.02 | 0.026 ± 0.014 | 0.03 ± 0.038 | 0 ± 0.028 | -0.0445 ± 0.0092 | -0.154 ± 0.054 | -0.259 ± 0.12 | 0.0055 ± 0.018 | 0.006 ± 0.025 | -0.001 ± 0.027
6 | MyoF:SRB | 0.009 ± 0.0014 | 0.008 ± 0.0085 | 0.007 ± 0.0057 | 0.0025 ± 0.0021 | 0.0055 ± 0.0078 | 0.007 ± 0.0028 | -0.003 ± 0.0042 | 0.013 | 0.0015 ± 0.00071 | -0.004 ± 0.0028 | -0.004 ± 0.0057 | -0.0015 ± 0.0064 | -0.0085 ± 0.012 | -0.002 ± 0.0057 | -0.001 ± 0.0099 | -0.004 ± 0.011 | -0.0085 ± 0.00071 | -0.005 ± 0.0099 | -0.0085 ± 0.012 | -0.0065 ± 0.022
7 | KF3CT:IL-1alpha | -0.0045 ± 0.011 | -0.0185 ± 0.011 | 0.008 ± 0.021 | -0.0135 ± 0.081 | -0.0235 ± 0.054 | -0.005 ± 0.04 | 0.0115 ± 0.011 | 0.03 | 0 ± 0.0042 | 0 ± 0.0014 | -0.018 ± 0.0057 | 0.02 ± 0.021 | 0.015 ± 0.013 | 0.02 ± 0.023 | -0.036 ± 0.0057 | -0.075 ± 0.013 | -0.059 ± 0.038 | 0.0585 ± 0.026 | 0.0435 ± 0.026 | 0.051 ± 0.016
8 | HDF3CGF:TIMP-1 | -0.0005 ± 0.0078 | -0.002 ± 0.016 | 0.0025 ± 0.015 | 0.014 ± 0.037 | -0.0385 ± 0.11 | 0.013 ± 0.042 | 0.018 ± 0.05 | 0.092 | -0.021 ± 0.017 | -0.028 ± 0.0099 | -0.048 ± 0.11 | -0.011 ± 0.03 | -0.0005 ± 0.005 | 0.0085 ± 0.018 | -0.0375 ± 0.033 | -0.0285 ± 0.0064 | -0.053 ± 0.03 | 0.0335 ± 0.016 | -0.025 ± 0.038 | 0.012 ± 0.02
9 | lMphg:CCL3/MIP-1alpha | 0.006 | -0.009 ± 0.011 | 0.0025 ± 0.011 | -0.02 ± 0.042 | -0.004 ± 0.02 | -0.029 ± 0.03 | 0.0015 ± 0.035 | 0.055 | 0.0015 ± 0.019 | -0.003 ± 0.037 | -0.0035 ± 0.0021 | -0.011 ± 0.021 | -0.0185 ± 0.013 | -0.067 ± 0.11 | -0.0105 ± 0.0064 | -0.0115 ± 0.029 | 0.021 ± 0.013 | -0.023 ± 0.0014 | 0.0105 ± 0.029 | 0.034 ± 0.033
10 | MyoF:Collagen IV | 0.0245 ± 0.0064 | 0.0165 ± 0.0064 | 0.0345 ± 0.037 | -0.002 ± 0.0071 | 0.023 ± 0.016 | 0.0195 ± 0.03 | 0.044 ± 0.018 | 0.117 | -0.0305 ± 0.025 | -0.037 ± 0.033 | -0.029 ± 0.0071 | -0.0345 ± 0.021 | -0.0295 ± 0.0092 | 0.0005 ± 0.0021 | 0.0195 ± 0.0078 | -0.0085 ± 0.012 | 0.0295 ± 0.035 | 0.228 ± 0.022 | 0.247 ± 0.024 | 0.273 ± 0.028
11 | HDF3CGF:TIMP-2 | 0.033 ± 0.0014 | 0.021 ± 0.017 | 0.025 ± 0.037 | 0.091 ± 0.0085 | 0.036 ± 0.05 | -0.008 ± 0.027 | -0.012 ± 0.031 | -0.018 | -0.0055 ± 0.025 | 0.018 ± 0.033 | -0.029 ± 0.037 | -0.0005 ± 0.019 | -0.006 ± 0.013 | -0.019 ± 0.016 | -0.0725 ± 0.057 | -0.0805 ± 0.047 | -0.0995 ± 0.035 | -0.094 ± 0.0057 | -0.136 ± 0.046 | -0.049 ± 0.044
12 | BE3C:PAI-I | -0.019 ± 0.018 | -0.029 ± 0.011 | 0.0065 ± 0.022 | 0.007 ± 0.058 | -0.0175 ± 0.064 | 0.0015 ± 0.00071 | -0.006 ± 0.0099 | -0.021 | -0.0285 ± 0.0078 | -0.0185 ± 0.03 | -0.0115 ± 0.0035 | -0.028 ± 0.068 | -0.009 ± 0.083 | -0.0145 ± 0.1 | 0.0125 ± 0.033 | 0.038 ± 0.018 | 0.076 ± 0.021 | -0.157 ± 0.013 | -0.162 ± 0.029 | -0.138 ± 0.025
13 | CASM3C:PAI-I | 0.0005 ± 0.005 | -0.003 ± 0.0042 | 0.0095 ± 0.005 | 0.007 ± 0.0028 | 0.013 ± 0.0014 | 0.0055 ± 0.012 | 0.0015 ± 0.0064 | 0.022 | 0.0015 ± 0.0092 | -0.0045 ± 0.00071 | 0.009 ± 0.0042 | -0.004 ± 0.0028 | -0.0035 ± 0.0064 | 0.003 ± 0.0099 | 0.0105 ± 0.021 | -0.0035 ± 0.011 | 0 ± 0.013 | 0.011 ± 0.0042 | 0.0075 ± 0.012 | 0.0085 ± 0.012

Source: the supplement of paper PMC10331698
